# Measurements: article PMC6829886, “Inhibition of Non-Small Cell Lung Cancer Cells by Oxy210, an Oxysterol-Derivative that Antagonizes TGFβ and Hedgehog Signaling” (Cells, 2019)
# Columns and labels:
# [1] = tested on: TGFβ signaling in NIH3T3-E1 cells; experiment: TGFβ target gene expression (Q-RT-PCR) in NIH3T3 cells; type: cell-based, mouse; settings: NIH3T3 cells, TGFβ 20 ng/mL
# Protocol: Total RNA was extracted with the RNeasy Plus Mini Kit from Qiagen (Hilden, Germany) according to the manufacturer’s instructions. One microgram of RNA was reverse-transcribed using an iScript Reverse Transcription Supermix from Bio-Rad Laboratories (Hercules, CA, USA) to make single-stranded cDNA. The cDNAs were then mixed with Qi SYBR Green Supermix (Bio-Rad) for quantitative RT-PCR assay using a Bio-Rad I-cycler IQ quantitative thermocycler. All PCR samples were prepared in triplicate wells in a 96-well plate. After 40 cycles of PCR, melt curves were examined in order to ensure primer specificity. Fold changes in gene expression were calculated using the ΔΔCt method. Primers used for mouse were as follows: Oaz1 (5′-CCACTGCTTCGCCAGAGAG-3′) and (5′-CCCGGACCCAGGTTACTA-3′), Gli1 (5′- […]-3′ and 5′- GCT GATCCAGCCTAAGGTTCTC-3′), Ptch1 (5′-CCATCGGCGACAAGAACC-3′ and 5′-[…]-3′), Thbs1 (5′-[…]-3′ and 5′-CGGGGATCAGGTTGGCATT-3′), Cryab (5′-[…]-3′ and 5′-[…]-3′), Egr2 (5′-[…]-3′ and 5′-[…]-3′), CTGF (5′-GGGCCTCTTCTGCGATTTC-3′ and 5′-[…]-3′).
# Figure 4 Inhibition of ligand-induced Hedgehog and TGFβ signaling in mouse fibroblast cells. NIH3T3 cells were pretreated for 2 h with Oxy210 or various inhibitors as indicated in DMEM containing 5% FBS. Next, cells were treated with CAPAN-1 conditioned medium (CM) in the absence or presence of oxysterols or inhibitors. After 72 h, RNA was extracted and analyzed by Q-RT-PCR for the expression of Hh target genes Gli1 and Ptch1 and normalized to Oaz1 expression (a,b). (c,e) NIH3T3 cells were treated in DMEM containing 0.1% BCS overnight and then pretreated for 2 h with the inhibitors as indicated in DMEM containing 0.1%BCS. The cells were then treated with TGFβ (20ng/mL) in the absence or presence of the compounds. After 48 h, RNA was extracted and analyzed by Q-RT-PCR for the expression of TGFβ target genes as indicated and normalized to Oaz1 expression. (d) NIH3T3 cells cultured in 24 well-plates were transfected with a Smad response element reporter (SBE-Luciferase) plasmid and a pTK-Renilla-Luciferase plasmid. 6 hrs after transfection, cells were treated with the test agents as indicated for 48 hrs. Luciferase activity was measured and normalized to the Renilla luciferase activity. Data from a representative experiment are reported as the mean of triplicate determinations ± SD (** p < 0.01 vs. CM (a,b) or TGFβ (c,d and e) treated cells; ## p < 0.01 vs. control).
# [2] = tested on: phosphorylation of Smad2 and Smad3 in A549 cells; experiment: Western blot of TGFβ-induced Smad2/Smad3 phosphorylation; type: cell-based, human; settings: 10 μM pretreatment 3 h, TGFβ 4 ng/mL
# Protocol: A549 cells were pretreated with DMSO, Oxy186 (10 μM) or Oxy210 (10 μM) for 3 h, then treated with TGFβ (4 ng/mL) for the indicated times. After treatment, the cells were harvested in Triton lysis buffer (1% Triton X-100, 25 mM Tris-HCl, pH 7.4, 300 mM NaCl with protease and phosphatase inhibitors), and the supernatant was collected as cell lysates after centrifugation (15,000× g, 25 min at 4 °C). A Bradford assay was used to measure the protein concentration. […] proteins of each sample were loaded into the wells of an 8% SDS-PAGE gel, and the proteins were transferred to a PVDF membrane after SDS-PAGE gel separation. […] Densitometry readings were performed with ImageJ software (Version 1.52a, NIH, Bethesda, MD, USA, see Supplementary Materials).
# Figure 11 Inhibition of TGFβ-induced Smad2/3 phosphorylation and transcriptional activity. […] Luciferase activity was measured and normalized to the Renilla luciferase activity. […]
# [3] = Metabolic stability in human liver microsomes; type: in vitro ADME
smiles,measurement,setting,value
"C[C@]12CC[C@H]3[C@@H](CC=C4C[C@@H](O)CC[C@@]43C)[C@@H]1CC[C@@H]2[C@](C)(O)CCc1cccnc1 [Oxy210, (3S,8S,9S,10R,13S,14S,17S)-17-((R)-2-hydroxy-4-(pyridin-3-yl)butan-2-yl)-10,13-dimethyl-2,3,4,7,8,9,10,11,12,13,14,15,16,17-tetradecahydro-1H-cyclopenta[a]phenanthren-3-ol]","expression of TGFβ target genes CTGF, Egr2, Thbs1 and Cryab",[1]; 48 h,strongly inhibited
same,expression of CTGF induced by TGFβ,[1]; 48 h (Figure 4e),robustly inhibited
same,TGFβ-induced phosphorylation of Smad2 and Smad3,[2],robustly inhibited
same,half-life,"[3]; human, liver microsomes, read-out: HLM, Half-Life",69 min
same,remaining at 1 h,"[3]; read-out: HLM, % Remaining after 60 min",55%
